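Five concentrations, 48 hours, 96-well plates. At the GI50, growth is halved. Definition used: TGI = concentration required for complete inhibition of growth.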
Columns and labels:
Test in all cases: growth of human tumour cells (NCI), 48 h
[1] = test system: 786-0 renal
[2] = test system: A498 renal
[3] = test system: A549 NSCLC
[4] = test system: ACHN renal
[5] = test system: BT-549 breast
[6] = test system: CAKI-1 renal
[7] = test system: CCRF-CEM leukemia
[8] = test system: COLO 205 colon
[9] = test system: DU-145 prostate
[10] = test system: EKVX NSCLC
[11] = test system: HCC-2998 colon
[12] = test system: HCT-15 colon
[13] = test system: HL-60(TB) leukemia
[14] = test system: HOP-62 NSCLC
[15] = test system: HOP-92 NSCLC
[16] = test system: HS 578T breast
[17] = test system: HT29 colon
[18] = test system: IGROV1 ovarian
[19] = test system: K-562 leukemia
[20] = test system: KM12 colon
[21] = test system: M14 melanoma
[22] = test system: MALME-3M melanoma
[23] = test system: MOLT-4 leukemia
[24] = test system: NCI-H226 lung
[25] = test system: NCI-H23 lung
[26] = test system: NCI-H522 lung
[27] = test system: NCI/ADR-RES ovarian
[28] = test system: OVCAR-3 ovarian
[29] = test system: OVCAR-4 ovarian
[30] = test system: OVCAR-5 ovarian
[31] = test system: OVCAR-8 ovarian
[32] = test system: PC-3 prostate
[33] = test system: RPMI-8226 leukemia
[34] = test system: RXF 393 renal
[35] = test system: SF-268 CNS
[36] = test system: SF-295 CNS
[37] = test system: SF-539 CNS
[38] = test system: SK-MEL-2 melanoma
[39] = test system: SK-MEL-28 melanoma
[40] = test system: SK-MEL-5 melanoma
[41] = test system: SK-OV-3 ovarian
[42] = test system: SN12C renal
[43] = test system: SNB-19 CNS
[44] = test system: SNB-75 CNS
[45] = test system: SR leukemia
[46] = test system: T-47D breast
[47] = test system: TK-10 renal
[48] = test system: U251 CNS
[49] = test system: UACC-257 melanoma
[50] = test system: UACC-62 melanoma
[51] = test system: UO-31 renal

COc1ccc(-c2nn(-c3cccc(Cl)c3)cc2-c2cc(-c3ccccc3)nc(N)n2)cc1
GI50 [1]: 4.94 µM
TGI [1]: 26.4 µM
GI50 [2]: 2.21 µM
TGI [2]: 11.9 µM
GI50 [3]: 2.7 µM
TGI [3]: 13.7 µM
GI50 [4]: 4.58 µM
TGI [4]: 15.8 µM
GI50 [5]: 4.31 µM
TGI [5]: 16.9 µM
GI50 [6]: 1.77 µM
TGI [6]: 10.7 µM
GI50 [7]: 2.13 µM
TGI [7]: 6.63 µM
GI50 [8]: 2.09 µM
TGI [8]: 3.81 µM
GI50 [9]: 10.5 µM
TGI [9]: 22.3 µM
GI50 [10]: 2.32 µM
TGI [10]: 15 µM
GI50 [11]: 2.25 µM
TGI [11]: 4.53 µM
GI50 [12]: 3.6 µM
TGI [12]: 16.1 µM
GI50 [13]: 2.53 µM
TGI [13]: 6.21 µM
GI50 [14]: 2.5 µM
TGI [14]: 6.41 µM
GI50 [15]: 1.06 µM
TGI [15]: 4.77 µM
GI50 [16]: 3.03 µM
TGI [16]: 18.4 µM
GI50 [17]: 2.07 µM
TGI [17]: 4.32 µM
GI50 [18]: 4.2 µM
TGI [18]: 16.5 µM
GI50 [19]: 1.92 µM
TGI [19]: 5.37 µM
GI50 [20]: 2.05 µM
TGI [20]: 4.39 µM
GI50 [21]: 2.69 µM
TGI [21]: 13.2 µM
GI50 [22]: 8.95 µM
TGI [22]: 31.8 µM
GI50 [23]: 2.03 µM
TGI [23]: 5.61 µM
GI50 [24]: 4.99 µM
TGI [24]: 22 µM
GI50 [25]: 2.83 µM
TGI [25]: 10.4 µM
GI50 [26]: 1.88 µM
TGI [26]: 3.53 µM
GI50 [27]: 8.72 µM
TGI [27]: 31 µM
GI50 [28]: 4.53 µM
TGI [28]: 15.3 µM
GI50 [29]: 2.42 µM
TGI [29]: 9.64 µM
GI50 [30]: 2.94 µM
TGI [30]: 11 µM
GI50 [31]: 1.9 µM
TGI [31]: 3.78 µM
GI50 [32]: 1.6 µM
TGI [32]: 6.56 µM
GI50 [33]: 2.65 µM
TGI [33]: 9.17 µM
GI50 [34]: 2.64 µM
TGI [34]: 8.47 µM
GI50 [35]: 3.76 µM
TGI [35]: 18.9 µM
GI50 [36]: 3.12 µM
TGI [36]: 11.7 µM
GI50 [37]: 11 µM
TGI [37]: 27.7 µM
GI50 [38]: 3.23 µM
TGI [38]: 10.7 µM
GI50 [39]: 12.4 µM
TGI [39]: 42.1 µM
GI50 [40]: 7.88 µM
TGI [40]: 28.4 µM
GI50 [41]: 13.5 µM
TGI [41]: 29.2 µM
GI50 [42]: 1.9 µM
TGI [42]: 5.02 µM
GI50 [43]: 12.7 µM
TGI [43]: 43.8 µM
GI50 [44]: 4.32 µM
TGI [44]: 22 µM
GI50 [45]: 2.03 µM
TGI [45]: 5.21 µM
GI50 [46]: 4.49 µM
TGI [46]: 17.1 µM
GI50 [47]: 11.8 µM
TGI [47]: 24.1 µM
GI50 [48]: 1.59 µM
TGI [48]: 3.03 µM
GI50 [49]: 2.58 µM
TGI [49]: 8.51 µM
GI50 [50]: 8.06 µM
TGI [50]: 26 µM
GI50 [51]: 10 µM
TGI [51]: 26.5 µM

Source: PubChem BioAssay (NCI)
